Measured values from patent US12195557B2, “Optimised compounds” (AXELIA ONCOLOGY PTY LTD, priority 2017, dated 2025).
“Also recorded” adds a separate entry of the source. Where two headings read alike, the source gives them in different places.

Key:
human TLR2 = biological target: T1, human TLR2 (Homo sapiens, UniProt O60603); assay: NF-kB activation in HEKBlue-hTLR2 cell line (SEAP reporter); type: cell-based
T1 construct: host or cells: HEK-Blue hTLR2 (HEK293-derived) cell line
Description: The potency of the compounds as activators of human and mouse TLR-2s was tested in an in vitro assay. The assay assesses NF-kB activation in the HEKBlue-mTLR-2 cell line. These cells have been stably transfected with mouse TLR-2 and express TLR-1 and TLR-6 endogenously at sufficient levels to allow for fully-functional TLR-1/2 and TLR-2/6 activation.
(§1) Toll-Like Receptor 2 (TLR2) stimulation is tested by assessing NF-kB activation in the HEKBlue-hTLR2 cell line. These cells have been stably transfected with human TLR2 and express TLR1 and TLR6 endogenously at a level sufficient to allow for fully-functional TLR1/2 and TLR2/6 activation. The activity of the test articles are tested on human TLR2 as potential agonists. The test articles are evaluated at seven concentrations and compared to control ligands. These steps are performed in triplicate.
as §1, with “stimulation was” for “stimulation is”, “assessing N-kB” for “assessing NF-kB”, “the HEK-Blue hTLR2” for “the HEKBlue-hTLR2”, “articles were” for “articles are”, “control ligands (see list below).” for “control ligands.”, “steps were” for “steps are”
The secreted embryonic alkaline phosphatase (SEAP) reporter is under the control of a promoter inducible by the transcription factor NF-κB. This reporter gene allows the monitoring of signaling through the TLR, based on the activation of NF-κB. In a 96-well plate (200 μL total volume) containing the appropriate cells (50,000-75,000 cells/well), 20 μL of the test article or the positive control ligand is added to the wells. The media added to the wells is designed for the detection of NF-κB induced SEAP expression. After a 20 hour incubation the optical density (OD) is read at 650 nm on a Molecular Devices SpectraMax 340PC absorbance detector.

[1] = system: A/Udorn/307/72 (H3N2) influenza virus; type: in vivo, C57BL/6 mice
TLR-2 = assay: TLR panel, NF-κB inducible SEAP reporter in HEK293 cells: TLR-2; type: cell-based, human and mouse
Description: (§2) INNA-006 was assessed for its ability to activate a range of other TLR pattern recognition receptors. These assessments were conducted using both human and mouse TLR panels. These assays detect a secreted embryonic alkaline phosphatase (SEAP) reporter under the control of a promoter which is inducible by NF-κB activation in HEK293 cells. The secreted embryonic alkaline phosphatase (SEAP) reporter is under the control of a promoter inducible by the transcription factor NF-κB. This reporter gene allows the monitoring of signaling through the TLR, based on the activation of NF-κB. In a 96-well plate (200 μL total volume) containing the appropriate cells (50,000-75,000 cells/well), 20 μL of the test article or the positive control ligand is added to the wells. The media added to the wells is designed for the detection of NF-κB induced SEAP expression. After a 16-24 hr incubation the optical density (OD) is read at 650 nm on a Molecular Devices SpectraMax 340PC absorbance detector. • hTLR2: HKLM (heat-killed Listeria monocytogenes) at 1×10^8 cells/mL • hTLR3: Poly(I:C) HMW at 1 μg/mL • hTLR4: E. coli K12 LPS at 100 ng/mL • hTLR5: S. typhimurium flagellin at 100 ng/mL • hTLR7: CL307 at 1 μg/mL • hTLR8: CL075 at 1 μg/mL • hTLR9: CpG ODN2006 at 1 μg/mL.

[2] = system: other TLR pattern recognition receptors (hTLR3, hTLR4, hTLR5, hTLR7, hTLR8, hTLR9); assay: TLR panel, NF-κB inducible SEAP reporter in HEK293 cells: other TLRs; type: cell-based, human and mouse
Description: as §2

[3] = Size exclusion chromatography and LC-MS analysis of micelle aggregates; type: physicochemical; settings: INNA-006 at 0.3 mg/ml in PBS; INNA-011 at 0.4 mg/ml in saline
Description: INNA-011 and INNA-006 form micelle-type aggregates in both aqueous and organic solutions. The size distribution and polydispersity of particles of INNA-006 and INNA-011 were determined by dynamic light scattering (DLS) and size exclusion chromatography (University of Melbourne). […] This corresponds to the assembly in a micelle formation of about 266 individual INNA-006 molecules. Using size exclusion chromatography and LC-MS analysis, it was determined that INNA-011 at 0.4 mg/ml is present in saline solution as a single uniform species with a Stoke's radius of ˜7.3 nm and a molecular weight of ˜566,000. This corresponds to the assembly in a micelle formation of about 267 individual INNA-011 molecules.

[4] = Dynamic light scattering (DLS) particle size; type: physicochemical; settings: within 2 hours of sample preparation
Description: INNA-011 and INNA-006 form micelle-type aggregates in both aqueous and organic solutions. The size distribution and polydispersity of particles of INNA-006 and INNA-011 were determined by dynamic light scattering (DLS) and size exclusion chromatography (University of Melbourne).
As the concentration of INNA-006 is increased, material with a particle size centered on a radius of ˜7 nm accumulates within 2 hours of the sample preparation as measured by DLS. This accumulation starts at a concentration of ˜16 μM, (0.02 mg/ml, represents the 0.16 nmole/10 μl curve) and is clearly discernable at 125 μM (0.17 mg/ml, represents the 1.25 nmole/10 μl curve) and above.
At the concentrations of 2 mM to […] particle sizes (7.4-7.7 nm) were larger than that observed with INNA-006 and additional species outside of this main sequence were more ordered and less dominant.

[5] = human plasma, 37° C., 4 h time course
in vitro [6] = settings: rat, rat plasma
in vitro [7] = settings: rat, hepatocytes
in vitro [8] = settings: dog, hepatocytes

T1 sequence (O60603 21-784): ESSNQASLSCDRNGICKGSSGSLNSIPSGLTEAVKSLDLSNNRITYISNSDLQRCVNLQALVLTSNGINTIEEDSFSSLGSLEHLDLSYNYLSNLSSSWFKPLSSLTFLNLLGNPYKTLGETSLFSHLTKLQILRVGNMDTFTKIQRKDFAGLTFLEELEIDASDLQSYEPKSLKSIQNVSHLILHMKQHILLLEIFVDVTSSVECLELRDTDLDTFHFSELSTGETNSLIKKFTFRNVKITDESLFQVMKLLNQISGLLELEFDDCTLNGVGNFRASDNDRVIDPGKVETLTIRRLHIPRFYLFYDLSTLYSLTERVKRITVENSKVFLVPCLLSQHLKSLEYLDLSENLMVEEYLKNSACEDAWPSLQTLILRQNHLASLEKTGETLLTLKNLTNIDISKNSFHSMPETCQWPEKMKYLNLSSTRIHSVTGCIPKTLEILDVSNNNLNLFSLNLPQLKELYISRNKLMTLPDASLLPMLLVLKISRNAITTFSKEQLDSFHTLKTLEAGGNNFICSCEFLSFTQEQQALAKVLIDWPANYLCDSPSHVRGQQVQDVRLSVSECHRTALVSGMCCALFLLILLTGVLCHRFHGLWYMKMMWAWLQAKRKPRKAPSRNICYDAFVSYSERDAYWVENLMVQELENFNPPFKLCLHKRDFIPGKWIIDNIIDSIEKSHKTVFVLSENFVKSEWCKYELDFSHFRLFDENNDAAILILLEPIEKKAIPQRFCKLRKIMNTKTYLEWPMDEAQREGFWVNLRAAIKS
T1 sequence (Q9Y2C9 32-796 partner): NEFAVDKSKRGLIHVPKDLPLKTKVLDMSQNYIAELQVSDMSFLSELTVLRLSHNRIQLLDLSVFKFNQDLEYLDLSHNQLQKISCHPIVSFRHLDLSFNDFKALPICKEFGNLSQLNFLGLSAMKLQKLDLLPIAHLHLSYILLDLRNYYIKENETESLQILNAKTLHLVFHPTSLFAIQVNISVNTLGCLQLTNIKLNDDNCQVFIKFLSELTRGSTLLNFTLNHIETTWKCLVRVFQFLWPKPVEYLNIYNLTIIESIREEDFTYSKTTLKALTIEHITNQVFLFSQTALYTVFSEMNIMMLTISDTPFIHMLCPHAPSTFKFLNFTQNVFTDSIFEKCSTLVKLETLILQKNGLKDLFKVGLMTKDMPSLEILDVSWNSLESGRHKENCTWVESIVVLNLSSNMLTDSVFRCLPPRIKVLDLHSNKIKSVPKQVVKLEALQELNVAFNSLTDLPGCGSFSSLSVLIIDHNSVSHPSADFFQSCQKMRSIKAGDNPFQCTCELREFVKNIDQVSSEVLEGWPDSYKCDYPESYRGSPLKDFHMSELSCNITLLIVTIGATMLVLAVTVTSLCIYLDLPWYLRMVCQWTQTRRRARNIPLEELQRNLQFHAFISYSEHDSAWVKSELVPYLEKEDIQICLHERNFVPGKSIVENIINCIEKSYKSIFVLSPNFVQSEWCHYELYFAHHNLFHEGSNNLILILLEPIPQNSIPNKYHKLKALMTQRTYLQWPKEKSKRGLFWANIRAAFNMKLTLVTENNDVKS

Compound: CCC(=O)OCC(CSCC(N)C(=O)NC(CO)C(=O)NCCOCC(=O)NCC(N)=O)OC(=O)CC (stereo not drawn) [INNA-006, Pam2Cys-Ser-PEG]
- TLR2 activation, potency in words (human TLR2; Example 2): significantly more potent than INNA-003
- EC50 (human TLR2; agonist activity against Human TLR-2 in vitro): 7.7 pM
- progression of influenza virus to the lungs (lung viral titre) ([1]; 0.005 nmoles intranasal 1 day prior to 500 pfu Udorn challenge, n=5, day 5 (Example 4)): partial inhibition
- progression of influenza virus to the lungs (lung viral titre) ([1]; 0.05 nmoles intranasal 1 day prior to challenge, n=10 (Example 5)): partial inhibition
- progression of influenza virus to the lungs (lung viral titre) ([1]; 0.1 nmoles intranasal 1 day prior to 500 pfu Udorn challenge, n=5, day 5 (Example 4)): significantly inhibited
- progression of influenza virus to the lungs (lung viral titre) ([1]; 0.5 nmoles intranasal 1 day prior to challenge, n=10 (Example 5)): significantly inhibited
- progression of influenza virus to the lungs (lung viral titre) ([1]; 5 nmoles intranasal 1 day prior to 500 pfu Udorn challenge, n=5, day 5 (Example 4)): significantly inhibited
- progression of influenza virus to the lungs (lung viral titre) ([1]; 5 nmoles intranasal 1 day prior to challenge, n=10 (Example 5)): significantly inhibited
- times more effective than INNA-003 at inhibiting viral progression ([1]; 3 doses of 0.5 nmoles (Example 7, FIG. 10)): 10-100 times
- progression of influenza virus to the lungs (lung viral titre) ([1]; 3 doses of 0.5 nmoles (days 0, 2, 4), challenge one day after third dose (Example 7)): major reduction in viral load in the lungs; also recorded: significant reduction in dissemination of virus to lungs; also recorded: significantly inhibited
- times more effective than INNA-003 or Pam2Cys-SK4 at inhibiting viral progression ([1]; single dose 1 day prior to challenge (Example 4)): 10-100 times
- TLR-2 activation (TLR-2): specific TLR-2 activation; also recorded: able to activate
- activation of any other TLR tested [2]: no activation
- Stokes radius [3]: ~6.3 nm
- individual molecules assembled in a micelle formation [3]: about 266 molecules
- molecular weight of micelle species [3]: ~377,000
- concentration at which accumulation of ~7 nm particles starts ([4]; DLS): ~16 µM
- particle size (radius) by DLS ([4]; INNA-011 at 2 mM to 8 pM in PBS): around 7 nm
- plasma half-life [5]: could not be calculated due to insufficient degradation
- half-life (in vitro [6]): 5.7 h
- half-life at 0.5 μM (in vitro [7]): > 6.25 h
- hepatocyte CLint at 0.5 μM (in vitro [7]): < 2 µL/min/1e6 cells
- half-life at 0.5 μM (in vitro [8]): > 6.25 h
- hepatocyte CLint at 0.5 μM (in vitro [8]): < 2 µL/min/1e6 cells
